The values below come from US7192953B2, “Antibacterial agents” (Vernalis (Oxford) Limited, priority 2002, dated 2007).

≈ marks a conversion by molar mass, not a printed value. Bounds are passed on as bounds.

What all share (assay type): cell-based
Experiment [1] has as its system S. pneumoniae. Briefly: MIC by agar plate dilution against clinical isolates of S. pneumoniae. The note with it: 6 strains of S. pneumoniae (clinical isolates), 18 to 24 hr, 35° C; for MIC: Streptococcus pneumoniae, read-out: MIC or MIC range, S. pneumoniae. The procedure: (§1) Minimal Inhibitory concentrations (MIC) of inhibitors against clinical isolates of S. pneumoniae, H. influenzae and M. catarrhalis obtained from the Public Health and Clinical Microbiology Laboratory, Addenbrooke's Hospital, Hills Road, Cambridge CB2 2QW, UK, were determined by a standard agar plate dilution method following recommended in British Society for Antimicrobial Chemotherapy Working Party. 1991. “A guide to sensitivity testing British Society for Antimicrobial Chemotherapy, London, United Kingdom”. Briefly Iso-Sensitest agar (pH 7.2: Oxoid, United Kingdom) was employed supplemented with 5% horse blood (Oxoid) and 20 μg of NAD (Sigma) per ml to support growth of fastidious bacteria. The inoculum used was approximately 10^4 colony forming units of each isolate contained in a volume of 1 μl. Plates were incubated 18 to 24 hr in air, or for fastidious bacteria an atmosphere enriched with 4–6% carbon dioxide at 35° C. The MIC was determined as the lowest concentration of an antimicrobial tested that inhibited growth of the inoculum, disregarding a single persisting colony or faint haze caused by the inoculation.
(§2) The compounds of the Examples were are antibacterially active in the above assays, The following table states the MICs or MIC ranges of the tested compounds against 6 strains of S. pneumoniae, 4 strains of H. influenzae and 3 strains of M. catarrhalis.

Experiment [2] deals with M. catarrhalis. Briefly: MIC by agar plate dilution against clinical isolates of M. catarrhalis. The conditions noted are these: 3 strains of M. catarrhalis (clinical isolates), 18 to 24 hr, 35° C; for MIC: Moraxella catarrhalis, read-out: MIC or MIC range, M. catarrhalis. The procedure:
as §1, §2

The test system of experiment [3] is H. influenzae. Briefly: MIC by agar plate dilution against clinical isolates of H. influenzae. The note with it: 4 strains of H. influenzae (clinical isolates), 18 to 24 hr, 35° C; for MIC: Haemophilus influenzae, read-out: MIC or MIC range, H. Influenzae. The procedure:
as §1, §2

Regarding `O=CN(O)C[C@@H](CC1CCCC1)C(=O)N1CCCCN1C(=O)Nc1ccc(F)cc1` [Example 16, 2-[(2R)-Cyclopentylmethyl-3-(formylhydroxyamino)propionyl]-tetrahydropyridazine-1-Carboxylic acid (4-fluorophenyl)amide], the results for the MIC in experiment [1], in experiment [2] and in experiment [3] were 4 to 8 µg/mL (≈ 9.51 to 19 µM), under 0.125 µg/mL and 0.125 to 4 µg/mL (≈ 0.297 to 9.51 µM), respectively.

For the compound `O=CN(O)C[C@@H](CC1CCCC1)C(=O)N1CCCN1C(=O)Nc1ccc(F)cc1` [Example 40], the MIC in experiment [1] was 8 to 16 µg/mL (≈ 19.7 to 39.4 µM); in experiment [2], under 0.125 µg/mL; in experiment [3], 0.125 to 2 µg/mL (≈ 0.308 to 4.92 µM).

With `O=CN(O)C[C@@H](CC1CCCC1)C(=O)N1CCCN1C(=O)C1CCCCC1` [Example 31, N-{(2R)-Cyclopentylmethyl-3-[2-Cyclohexanecarbonyl-pyrazolidin-1-yl]-3-oxo-propyl}-N-hydroxyformamide], the MIC in experiment [1] is 8 µg/mL (≈ 21.1 µM); in experiment [2] it was 0.06 µg/mL (≈ 0.158 µM); in experiment [3] it was 4 to 16 µg/mL (≈ 10.5 to 42.2 µM).

Take `O=CN(O)C[C@@H](CC1CCCC1)C(=O)N1CCCCN1C(=O)c1ccoc1` [Example 9, N-{(2R)-Cyclopentylmethyl-3-[2-(furan-3-Carbonyl)-tetrahydropyridazin-1-yl]-3-oxo-propyl}-N-hydroxyformamide]: the MIC in experiment [1] was 0.5 to 2 µg/mL (≈ 1.32 to 5.3 µM); in experiment [2], under 0.93 µg/mL; in experiment [3], 0.125 to 8 µg/mL (≈ 0.331 to 21.2 µM).

Consider `O=C(C[C@@H](CC1CCCC1)C(=O)N1CCCCN1C(=O)c1ccco1)NO` [Example 44, (3R)-Cyclopentylmethyl-4-[2-(furan-2-Carbonyl)-tetrahydropyridazin-1-yl]-N-hydroxy-4-oxo-butyramide], for which the “MIC or MIC range, S. pneumoniae” value in experiment [1] lay within 2 to 4 µg/mL. Moreover, in experiment [2], the “MIC or MIC range, M. catarrhalis” value is 0.6 µg/mL (≈ 1.59 µM). Further, the “MIC or MIC range, H. Influenzae” value in experiment [3] was 0.06 to 0.125 µg/mL.

As for “(2R)-Cyclopentylmethyl-3-[2-(furan-2-Carbonyl)-tetrahydropyridazin-1-yl]-3-oxo-propyl}formamide [Example 1]”, the “MIC or MIC range, S. pneumoniae” value in experiment [1] is 0.5 to 2 µg/mL. Also, the “MIC or MIC range, M. catarrhalis” value in experiment [2] was under 0.125 µg/mL. Also, the “MIC or MIC range, H. Influenzae” value in experiment [3] is under 0.125 to 0.25 µg/mL.

With `O=CN(O)C[C@@H](CC1CCCC1)C(=O)N1CCCN1C(=O)c1ccc(F)cc1` [Example 35, N-{(2R)-Cyclopentylmethyl-3-[2-(4-fluorobenzoyl)-pyrazolidin-1-yl]-3-oxo-propyl}-N-hydroxyformamide], the MIC in experiment [1] was 16 µg/mL (≈ 40.9 µM); in experiment [2], 0.125 µg/mL (≈ 0.319 µM); in experiment [3] it was 4 to 8 µg/mL (≈ 10.2 to 20.4 µM).

With `CC(C)(C)OC(=O)N1CCCN1C(=O)[C@H](CC1CCCC1)CN(O)C=O` [Example 23, 2-[(2R)-Cyclopentylmethyl-3-(formylhydroxyamino)-propionyl]-pyrazolidine-1-Carboxylic acid tert-butyl ester], in experiment [1], the “MIC or MIC range, S. pneumoniae” value lay within 8 to 16 µg/mL. Besides, the “MIC or MIC range, M. catarrhalis” value in experiment [2] is under 0.125 µg/mL. Besides, the “MIC or MIC range, H. Influenzae” value in experiment [3] is 0.5 to 2 µg/mL.

Turning to `O=CN(O)C[C@@H](CC1CCCC1)C(=O)N1CCCCN1C(=O)Nc1ccc(F)cc1F` [Example 17, 2-[(2R)-Cyclopentylmethyl-3-(formylhydroxyamino)-propionyl]-tetrahydropyridazine-1-Carboxylic acid (2,4-bis(fluoro)phenyl)amide], the MIC in experiment [1] is 4 to 8 µg/mL (≈ 9.12 to 18.2 µM); in experiment [2], under 0.125 µg/mL; in experiment [3] it was 0.125 µg/mL (≈ 0.285 µM).

On to “(2R)-Cyclopentylmethyl-3-[2-(furan-2-Carbonyl)-pyrazolidin-1-yl]-3-oxo-propyl}formamide [Example 25]”, for which the “MIC or MIC range, S. pneumoniae” value in experiment [1] was 4 to 8 µg/mL. Also, the “MIC or MIC range, M. catarrhalis” value in experiment [2] was under 0.125 µg/mL. Further, the “MIC or MIC range, H. Influenzae” value in experiment [3] was under 0.125 to 1 µg/mL.

`O=CN(O)C[C@@H](CC1CCCC1)C(=O)N1CCCCN1C(=O)c1ccc(N2CCOCC2)nc1` [Example 12, N-{(2R)-Cyclopentylmethyl-3-[2-(6-morpholin-4-yl-pyridine-3-Carbonyl)-tetrahydropyridazin-1-yl]-3-oxo-propyl}N-hydroxyformamide]: the MIC in experiment [1] was 2 to 16 µg/mL (≈ 4.22 to 33.8 µM); in experiment [2], 1 µg/mL (≈ 2.11 µM); in experiment [3] it was 16 to 32 µg/mL (≈ 33.8 to 67.6 µM).

Consider `O=CN(O)C[C@@H](CC1CCCC1)C(=O)N1CCCN1C(=O)c1ccc2c(c1)OCO2` [Example 34, N-{(2R)-Cyclopentylmethyl-3-[2-(benzo[1,3]-dioxole-5-Carbonyl)-pyrazolidin-1-yl]-3-oxo-propyl}N-hydroxyformamide], for which the MIC was 8 to 16 µg/mL (≈ 19.2 to 38.3 µM) in experiment [1], 0.125 µg/mL (≈ 0.299 µM) in experiment [2] and 4 to 16 µg/mL (≈ 9.58 to 38.3 µM) in experiment [3].

On to `O=CN(O)C[C@@H](CC1CCCC1)C(=O)N1CCCN1C(=O)Nc1ccccc1` [Example 39, 2-[(2R)-Cyclopentylmethyl-3-(formylhydroxyamino)-propionyl]-pyrazolidine-1-Carboxylic acid phenylamide], for which the MIC in experiment [1] was 4 to 16 µg/mL (≈ 10.3 to 41.2 µM); in experiment [2] it was under 0.125 µg/mL; in experiment [3], 0.125 to 2 µg/mL (≈ 0.322 to 5.15 µM).

For `COc1ccc(C(=O)N2CCCN2C(=O)[C@H](CC2CCCC2)CN(O)C=O)cc1` [Example 33, N-{(2R)-Cyclopentylmethyl-3-[2-(4-methoxybenzoyl)-pyrazolidin-1-yl]-3-oxo-propyl}-N-hydroxyformamide], the MIC in experiment [1] was 4 to 16 µg/mL (≈ 9.91 to 39.7 µM); in experiment [2], 0.06 µg/mL (≈ 0.149 µM); in experiment [3], 16 to 32 µg/mL (≈ 39.7 to 79.3 µM).

On to `O=CN(O)C[C@@H](CC1CCCC1)C(=O)N1CCCN1C(=O)c1ccc(N2CCOCC2)nc1` [Example 32, N-{(2R)-Cyclopentylmethyl-3-[2-(6-morpholin-4-yl-pyridine-3-Carbonyl)-pyrazolidin-1-yl]-3-oxo-propyl}-N-hydroxyformamide], for which the MIC was 1 to 8 µg/mL (≈ 2.18 to 17.4 µM) in experiment [1], 0.25 µg/mL (≈ 0.544 µM) in experiment [2] and 16 µg/mL (≈ 34.8 µM) in experiment [3].

For the compound `COc1ccccc1NC(=O)N1CCCCN1C(=O)[C@H](CC1CCCC1)CN(O)C=O` [Example 20, 2-[(2R)-Cyclopentylmethyl-3-(formylhydroxyamino)-propionyl]-tetrahydropyridazine-1-Carboxylic acid (2-methoxyphenyl)amide], the MIC was 4 to 8 µg/mL (≈ 9.25 to 18.5 µM) in experiment [1], under 0.03 µg/mL in experiment [2] and 0.5 to 2 µg/mL (≈ 1.16 to 4.62 µM) in experiment [3].

For the compound `O=CN(O)C[C@@H](CC1CCCC1)C(=O)N1CCCCN1C(=O)Nc1ccc2c(c1)OCCO2` [Example 19, 2-[(2R)-Cyclopentylmethyl-3-(formylhydroxyamino)-propionyl]-tetrahydropyridazine-1-Carboxylic acid (2,3,4a,8a-tetrahydrobenzo[1,4]dioxin-6-yl)amide], the values for the MIC in experiment [1], in experiment [2] and in experiment [3] were 2 to 4 µg/mL (≈ 4.34 to 8.69 µM), under 0.125 µg/mL and 0.125 to 4 µg/mL (≈ 0.271 to 8.69 µM), respectively.

Take `COCC(=O)N1CCCCN1C(=O)[C@H](CC1CCCC1)CN(O)C=O` [Example 2, N-{(2R)-Cyclopentylmethyl-3-[2-(2-methoxyacetyl)tetrahydropyridazin-1-yl]-3-oxo-propyl}-N-hydroxyformamide]: the MIC in experiment [1] was 1 to 8 µg/mL (≈ 2.81 to 22.5 µM); in experiment [2], 0.25 µg/mL (≈ 0.703 µM); in experiment [3], 0.25 to 8 µg/mL (≈ 0.703 to 22.5 µM).

Turning to `O=CN(O)C[C@@H](CC1CCCC1)C(=O)N1CCCCN1C(=O)Nc1ccc(C(F)(F)F)cc1` [Example 18, 2-[(2R)-Cyclopentylmethyl-3-(formylhydroxyamino)-propionyl]-tetrahydropyridazine-1-Carboxylic acid (4-trifluoromethylphenyl)amide], the MIC was 4 µg/mL (≈ 8.5 µM) in experiment [1], under 0.125 µg/mL in experiment [2] and 0.25 to 16 µg/mL (≈ 0.531 to 34 µM) in experiment [3].

Regarding `COc1cccc(NC(=O)N2CCCN2C(=O)[C@H](CC2CCCC2)CN(O)C=O)c1` [Example 41, 2-[(2R)-Cyclopentylmethyl-3-(formylhydroxyamino)-propionyl]-pyrazolidine-1-Carboxylic acid (3-methoxyphenyl)amide], the MIC in experiment [1] was 4 to 8 µg/mL (≈ 9.56 to 19.1 µM); in experiment [2] it was under 0.125 µg/mL; in experiment [3], 0.125 to 2 µg/mL (≈ 0.299 to 4.78 µM).

For the compound `O=CN(O)C[C@@H](CC1CCCC1)C(=O)N1CCCCN1C(=O)c1ccc(F)cc1` [Example 10, N-{(2R)-Cyclopentylmethyl-3-[2-(4-fluorobenzoyl)-tetrahydropyridazin-1-yl]-3-oxo-propyl}-N-hydroxyformamide], the MIC in experiment [1] is 0.5 to 4 µg/mL (≈ 1.23 to 9.87 µM); in experiment [2], 0.5 µg/mL (≈ 1.23 µM); in experiment [3], 0.5 to 2 µg/mL (≈ 1.23 to 4.93 µM).

Turning to `O=CN(O)C[C@@H](CC1CCCC1)C(=O)N1CCCN1C(=O)c1cccnc1` [Example 36, N-{(2R)-Cyclopentylmethyl-3-[2-(pyridine-3-Carbonyl)-pyrazolidin-1-yl]-3-oxo-propyl}N-hydroxyformamide], the MIC is 8 µg/mL (≈ 21.4 µM) in experiment [1], 0.125 µg/mL (≈ 0.334 µM) in experiment [2] and 2 to 32 µg/mL (≈ 5.34 to 85.5 µM) in experiment [3].
